Test results as given in ChEMBL document CHEMBL5653615 (J Biol Chem, 2013).

Assays:
[1] = target: Calcium/calmodulin-dependent protein kinase type 1B (Homo sapiens) (UniProt Q6P2M8); experiment: Inhibition of human CAMK1b at 500 nM by HotSpot assay relative to control
[2] = target: Death-associated protein kinase 3 (Homo sapiens) (UniProt O43293); experiment: Inhibition of human DAPK3 at 500 nM by HotSpot assay relative to control
[3] = target: Serine/threonine-protein kinase 26 (Homo sapiens) (UniProt Q9P289); experiment: Inhibition of human MST4 at 500 nM by HotSpot assay relative to control
Sequence of Serine/threonine-protein kinase 26 (Homo sapiens) (Q9P289 2-416 limits assumed): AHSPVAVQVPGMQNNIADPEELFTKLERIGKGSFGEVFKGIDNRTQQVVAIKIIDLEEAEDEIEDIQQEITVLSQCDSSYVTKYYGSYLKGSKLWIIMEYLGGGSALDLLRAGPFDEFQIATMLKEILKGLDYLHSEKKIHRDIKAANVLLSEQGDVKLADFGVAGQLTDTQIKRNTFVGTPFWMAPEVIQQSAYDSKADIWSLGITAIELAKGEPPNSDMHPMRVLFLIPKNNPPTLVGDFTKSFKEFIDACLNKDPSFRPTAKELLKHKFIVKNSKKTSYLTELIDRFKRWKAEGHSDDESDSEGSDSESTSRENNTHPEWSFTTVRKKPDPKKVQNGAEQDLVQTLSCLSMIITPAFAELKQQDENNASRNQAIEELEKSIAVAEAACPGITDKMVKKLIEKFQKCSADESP

[4] = target: MAP kinase-activated protein kinase 3 (Homo sapiens) (UniProt Q16644); experiment: Inhibition of human MAPKAPK3 at 500 nM by HotSpot assay relative to control
[5] = target: Protein kinase C theta type (Homo sapiens) (UniProt Q04759); experiment: Inhibition of human PKCtheta at 500 nM by HotSpot assay relative to control
Sequence of Protein kinase C theta type (Homo sapiens) (Q04759 whole entry, looked up): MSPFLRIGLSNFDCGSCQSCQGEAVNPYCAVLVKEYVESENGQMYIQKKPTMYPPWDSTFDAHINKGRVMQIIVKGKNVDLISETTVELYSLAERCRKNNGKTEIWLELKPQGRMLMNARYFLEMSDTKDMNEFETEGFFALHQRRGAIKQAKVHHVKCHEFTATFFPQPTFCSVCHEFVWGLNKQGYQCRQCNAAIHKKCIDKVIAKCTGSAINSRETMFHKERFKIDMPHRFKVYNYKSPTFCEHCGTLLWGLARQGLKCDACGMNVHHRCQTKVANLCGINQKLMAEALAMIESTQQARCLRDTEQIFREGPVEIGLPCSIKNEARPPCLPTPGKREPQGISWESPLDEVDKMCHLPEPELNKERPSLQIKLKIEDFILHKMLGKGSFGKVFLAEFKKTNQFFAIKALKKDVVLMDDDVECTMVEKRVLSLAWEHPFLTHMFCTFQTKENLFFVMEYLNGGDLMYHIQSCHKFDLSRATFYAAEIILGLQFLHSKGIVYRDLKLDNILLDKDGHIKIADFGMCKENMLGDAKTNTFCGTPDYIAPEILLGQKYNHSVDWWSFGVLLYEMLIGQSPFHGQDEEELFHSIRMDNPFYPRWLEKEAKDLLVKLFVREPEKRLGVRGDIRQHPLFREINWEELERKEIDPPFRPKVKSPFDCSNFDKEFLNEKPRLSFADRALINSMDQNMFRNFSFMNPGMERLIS

[6] = target: Activated CDC42 kinase 1 (Homo sapiens) (UniProt Q07912); experiment: Inhibition of human ACK1 at 500 nM by HotSpot assay relative to control
[7] = target: Serine/threonine-protein kinase Nek7 (Homo sapiens) (UniProt Q8TDX7); experiment: Inhibition of human NEK7 at 500 nM by HotSpot assay relative to control
[8] = target: Calcium/calmodulin-dependent protein kinase type 1G (Homo sapiens) (UniProt Q96NX5); experiment: Inhibition of human CAMK1g at 500 nM by HotSpot assay relative to control
[9] = target: Tyrosine-protein kinase ABL2 (Homo sapiens) (UniProt P42684); experiment: Inhibition of human ABL2 at 500 nM by HotSpot assay relative to control
[10] = target: Mitogen-activated protein kinase 8 (Homo sapiens) (UniProt P45983); experiment: Inhibition of human JNK1 at 500 nM by HotSpot assay relative to control
Sequence of Mitogen-activated protein kinase 8 (Homo sapiens) (P45983 whole entry): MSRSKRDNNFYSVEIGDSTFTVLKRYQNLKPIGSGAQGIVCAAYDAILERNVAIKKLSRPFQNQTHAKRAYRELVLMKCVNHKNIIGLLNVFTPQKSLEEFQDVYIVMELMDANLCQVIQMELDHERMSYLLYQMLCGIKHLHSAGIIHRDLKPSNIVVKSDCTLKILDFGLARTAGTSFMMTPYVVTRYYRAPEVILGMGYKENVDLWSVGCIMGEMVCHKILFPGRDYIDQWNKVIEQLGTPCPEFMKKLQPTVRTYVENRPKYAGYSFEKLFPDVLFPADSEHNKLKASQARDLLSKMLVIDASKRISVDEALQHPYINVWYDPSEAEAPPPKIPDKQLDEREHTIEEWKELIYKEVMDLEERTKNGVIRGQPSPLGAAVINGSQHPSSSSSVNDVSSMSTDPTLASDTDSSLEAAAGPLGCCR

[11] = target: T1, cGMP-dependent protein kinase 1 (Homo sapiens) (UniProt Q13976); experiment: Inhibition of human PKG1b at 500 nM by HotSpot assay relative to control
T1 sequence (whole entry): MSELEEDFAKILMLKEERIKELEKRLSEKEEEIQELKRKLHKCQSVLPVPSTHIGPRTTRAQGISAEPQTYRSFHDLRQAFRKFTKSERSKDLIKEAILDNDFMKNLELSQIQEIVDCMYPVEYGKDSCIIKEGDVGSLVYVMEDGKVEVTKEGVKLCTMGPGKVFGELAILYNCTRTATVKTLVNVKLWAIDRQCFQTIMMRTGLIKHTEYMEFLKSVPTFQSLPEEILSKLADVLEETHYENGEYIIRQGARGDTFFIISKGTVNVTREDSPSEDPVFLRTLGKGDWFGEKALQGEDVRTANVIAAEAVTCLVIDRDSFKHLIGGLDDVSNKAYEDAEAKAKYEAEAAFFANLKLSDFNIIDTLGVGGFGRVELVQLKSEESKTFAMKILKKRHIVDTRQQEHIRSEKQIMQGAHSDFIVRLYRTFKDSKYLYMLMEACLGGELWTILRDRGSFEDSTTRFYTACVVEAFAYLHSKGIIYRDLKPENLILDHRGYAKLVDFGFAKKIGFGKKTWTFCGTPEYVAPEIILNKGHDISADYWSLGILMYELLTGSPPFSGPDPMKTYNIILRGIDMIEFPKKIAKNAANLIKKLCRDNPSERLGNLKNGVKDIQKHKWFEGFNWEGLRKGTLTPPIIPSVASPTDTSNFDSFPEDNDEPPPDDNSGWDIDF

[12] = target: RAC-gamma serine/threonine-protein kinase (Homo sapiens) (UniProt Q9Y243); experiment: Inhibition of human AKT3 at 500 nM by HotSpot assay relative to control
[13] = target: T2, Tyrosine-protein kinase JAK3 (Homo sapiens) (UniProt P52333); experiment: Inhibition of human JAK3 at 500 nM by HotSpot assay relative to control
T2 sequence (whole entry): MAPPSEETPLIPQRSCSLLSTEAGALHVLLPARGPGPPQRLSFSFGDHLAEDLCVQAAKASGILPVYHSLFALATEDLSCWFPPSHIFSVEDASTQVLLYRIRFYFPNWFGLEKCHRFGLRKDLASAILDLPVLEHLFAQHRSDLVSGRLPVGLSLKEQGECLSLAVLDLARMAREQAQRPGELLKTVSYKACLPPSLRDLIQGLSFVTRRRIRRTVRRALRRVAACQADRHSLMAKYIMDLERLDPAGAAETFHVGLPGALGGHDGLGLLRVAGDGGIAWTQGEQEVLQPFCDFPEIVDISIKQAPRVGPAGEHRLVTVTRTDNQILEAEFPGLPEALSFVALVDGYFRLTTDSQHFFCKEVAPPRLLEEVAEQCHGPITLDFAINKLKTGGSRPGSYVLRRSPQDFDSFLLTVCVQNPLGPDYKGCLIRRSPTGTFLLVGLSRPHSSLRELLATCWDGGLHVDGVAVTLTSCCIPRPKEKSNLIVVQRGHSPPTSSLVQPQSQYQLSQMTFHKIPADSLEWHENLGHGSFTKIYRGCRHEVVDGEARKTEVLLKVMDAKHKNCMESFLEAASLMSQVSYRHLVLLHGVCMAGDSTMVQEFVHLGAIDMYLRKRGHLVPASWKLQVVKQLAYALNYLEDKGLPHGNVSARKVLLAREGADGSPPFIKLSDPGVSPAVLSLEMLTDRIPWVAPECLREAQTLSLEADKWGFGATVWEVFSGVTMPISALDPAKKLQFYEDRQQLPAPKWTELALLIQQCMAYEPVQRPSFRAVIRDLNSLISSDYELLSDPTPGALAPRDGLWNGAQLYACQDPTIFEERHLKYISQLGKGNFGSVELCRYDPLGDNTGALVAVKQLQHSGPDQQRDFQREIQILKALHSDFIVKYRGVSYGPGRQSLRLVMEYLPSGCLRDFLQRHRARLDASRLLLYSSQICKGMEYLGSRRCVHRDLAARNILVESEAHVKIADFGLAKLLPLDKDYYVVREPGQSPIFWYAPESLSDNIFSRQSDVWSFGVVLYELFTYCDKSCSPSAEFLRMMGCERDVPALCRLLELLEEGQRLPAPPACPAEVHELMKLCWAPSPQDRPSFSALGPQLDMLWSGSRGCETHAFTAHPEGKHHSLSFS

[14] = target: MAP kinase-interacting serine/threonine-protein kinase 2 (Homo sapiens) (UniProt Q9HBH9); experiment: Inhibition of human MNK2 at 500 nM by HotSpot assay relative to control
Sequence of MAP kinase-interacting serine/threonine-protein kinase 2 (Homo sapiens) (Q9HBH9 whole entry, looked up): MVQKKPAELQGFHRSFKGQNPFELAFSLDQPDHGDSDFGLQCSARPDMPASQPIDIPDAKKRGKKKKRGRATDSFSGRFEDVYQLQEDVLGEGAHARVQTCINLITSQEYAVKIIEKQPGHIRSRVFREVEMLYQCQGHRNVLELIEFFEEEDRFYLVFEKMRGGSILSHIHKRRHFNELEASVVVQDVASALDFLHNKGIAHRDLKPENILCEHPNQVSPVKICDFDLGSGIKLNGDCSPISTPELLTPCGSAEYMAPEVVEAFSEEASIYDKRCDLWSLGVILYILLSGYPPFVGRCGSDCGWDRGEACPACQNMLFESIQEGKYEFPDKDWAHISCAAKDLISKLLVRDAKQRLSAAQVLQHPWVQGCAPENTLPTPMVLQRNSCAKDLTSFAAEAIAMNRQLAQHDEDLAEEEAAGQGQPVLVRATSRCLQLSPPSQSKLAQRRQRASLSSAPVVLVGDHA

[15] = target: Proto-oncogene tyrosine-protein kinase receptor Ret (Homo sapiens) (UniProt P07949); experiment: Inhibition of human RET at 500 nM by HotSpot assay relative to control
Sequence of Proto-oncogene tyrosine-protein kinase receptor Ret (Homo sapiens) (P07949 whole entry): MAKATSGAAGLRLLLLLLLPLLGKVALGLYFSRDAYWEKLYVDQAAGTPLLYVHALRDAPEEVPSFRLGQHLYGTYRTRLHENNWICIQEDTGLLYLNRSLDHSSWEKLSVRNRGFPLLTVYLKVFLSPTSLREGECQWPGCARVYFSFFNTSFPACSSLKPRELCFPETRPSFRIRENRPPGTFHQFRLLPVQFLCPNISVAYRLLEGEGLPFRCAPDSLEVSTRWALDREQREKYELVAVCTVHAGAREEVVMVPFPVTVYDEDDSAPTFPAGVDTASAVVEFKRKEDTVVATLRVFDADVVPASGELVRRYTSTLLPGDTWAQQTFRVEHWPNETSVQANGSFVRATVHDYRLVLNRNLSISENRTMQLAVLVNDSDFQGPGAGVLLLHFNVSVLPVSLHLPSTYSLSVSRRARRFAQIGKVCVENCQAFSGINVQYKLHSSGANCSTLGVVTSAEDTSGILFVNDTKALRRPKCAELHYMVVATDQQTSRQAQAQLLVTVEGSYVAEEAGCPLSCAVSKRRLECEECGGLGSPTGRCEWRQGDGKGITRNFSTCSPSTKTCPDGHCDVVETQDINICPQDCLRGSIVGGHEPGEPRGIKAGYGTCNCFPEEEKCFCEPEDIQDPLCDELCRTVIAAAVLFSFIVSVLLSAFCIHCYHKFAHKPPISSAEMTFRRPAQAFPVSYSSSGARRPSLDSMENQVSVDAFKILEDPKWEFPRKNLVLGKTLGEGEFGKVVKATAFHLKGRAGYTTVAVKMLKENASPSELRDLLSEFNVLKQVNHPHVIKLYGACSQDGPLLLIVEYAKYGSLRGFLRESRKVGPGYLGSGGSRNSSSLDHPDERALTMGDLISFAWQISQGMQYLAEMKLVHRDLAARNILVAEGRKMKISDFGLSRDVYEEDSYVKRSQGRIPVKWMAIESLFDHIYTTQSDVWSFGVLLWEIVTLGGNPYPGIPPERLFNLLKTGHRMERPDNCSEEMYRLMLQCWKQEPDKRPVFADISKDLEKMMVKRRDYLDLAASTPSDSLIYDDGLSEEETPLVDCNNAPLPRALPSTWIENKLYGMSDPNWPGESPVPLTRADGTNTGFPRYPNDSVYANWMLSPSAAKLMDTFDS

[16] = target: Calcium/calmodulin-dependent protein kinase kinase 2 (Homo sapiens) (UniProt Q96RR4); experiment: Inhibition of human CAMKK2 at 500 nM by HotSpot assay relative to control
Sequence of Calcium/calmodulin-dependent protein kinase kinase 2 (Homo sapiens) (Q96RR4 2-588 limits assumed): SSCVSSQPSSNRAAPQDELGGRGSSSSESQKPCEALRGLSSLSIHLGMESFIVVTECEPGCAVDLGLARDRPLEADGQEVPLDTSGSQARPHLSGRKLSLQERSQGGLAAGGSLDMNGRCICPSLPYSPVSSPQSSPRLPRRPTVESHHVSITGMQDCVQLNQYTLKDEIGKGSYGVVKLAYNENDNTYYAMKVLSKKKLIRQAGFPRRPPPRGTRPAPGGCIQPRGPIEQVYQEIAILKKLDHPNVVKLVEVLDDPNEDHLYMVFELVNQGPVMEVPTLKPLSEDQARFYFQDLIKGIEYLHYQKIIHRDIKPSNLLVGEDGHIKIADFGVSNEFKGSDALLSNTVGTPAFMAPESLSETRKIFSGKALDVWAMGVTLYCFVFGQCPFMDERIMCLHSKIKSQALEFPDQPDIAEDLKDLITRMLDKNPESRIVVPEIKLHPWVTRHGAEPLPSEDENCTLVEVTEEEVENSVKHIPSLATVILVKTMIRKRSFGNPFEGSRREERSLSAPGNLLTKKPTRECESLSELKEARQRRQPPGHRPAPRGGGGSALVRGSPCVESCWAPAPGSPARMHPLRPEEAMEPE

[17] = target: Mitogen-activated protein kinase 1 (Homo sapiens) (UniProt P28482); settings: dose 500.0 nM
Sequence of Mitogen-activated protein kinase 1 (Homo sapiens) (P28482 whole entry): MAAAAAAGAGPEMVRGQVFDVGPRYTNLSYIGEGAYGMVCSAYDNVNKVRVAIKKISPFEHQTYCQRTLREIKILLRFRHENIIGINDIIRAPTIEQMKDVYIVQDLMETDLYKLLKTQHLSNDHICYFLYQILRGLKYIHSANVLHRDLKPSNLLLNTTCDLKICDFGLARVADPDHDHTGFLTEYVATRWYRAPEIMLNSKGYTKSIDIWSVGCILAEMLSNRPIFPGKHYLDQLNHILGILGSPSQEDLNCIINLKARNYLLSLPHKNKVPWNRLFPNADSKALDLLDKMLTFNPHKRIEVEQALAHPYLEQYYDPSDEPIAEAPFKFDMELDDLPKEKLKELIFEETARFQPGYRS
Description: Inhibition of human ERK2 at 500 nM by HotSpot assay relative to control

Sequence of Death-associated protein kinase 3 (Homo sapiens) (O43293 whole entry, looked up): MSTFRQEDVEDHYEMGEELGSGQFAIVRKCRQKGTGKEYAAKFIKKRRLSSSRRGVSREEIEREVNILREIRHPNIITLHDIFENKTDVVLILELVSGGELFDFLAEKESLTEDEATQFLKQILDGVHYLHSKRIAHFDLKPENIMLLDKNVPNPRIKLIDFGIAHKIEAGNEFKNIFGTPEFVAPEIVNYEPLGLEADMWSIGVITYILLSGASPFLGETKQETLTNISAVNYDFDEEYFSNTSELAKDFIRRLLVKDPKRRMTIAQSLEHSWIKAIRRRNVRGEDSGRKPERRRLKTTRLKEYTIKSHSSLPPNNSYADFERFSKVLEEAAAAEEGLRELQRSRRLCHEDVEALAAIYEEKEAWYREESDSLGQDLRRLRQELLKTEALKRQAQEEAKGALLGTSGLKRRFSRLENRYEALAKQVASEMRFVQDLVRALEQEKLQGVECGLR
Sequence of Calcium/calmodulin-dependent protein kinase type 1B (Homo sapiens) (Q6P2M8 whole entry): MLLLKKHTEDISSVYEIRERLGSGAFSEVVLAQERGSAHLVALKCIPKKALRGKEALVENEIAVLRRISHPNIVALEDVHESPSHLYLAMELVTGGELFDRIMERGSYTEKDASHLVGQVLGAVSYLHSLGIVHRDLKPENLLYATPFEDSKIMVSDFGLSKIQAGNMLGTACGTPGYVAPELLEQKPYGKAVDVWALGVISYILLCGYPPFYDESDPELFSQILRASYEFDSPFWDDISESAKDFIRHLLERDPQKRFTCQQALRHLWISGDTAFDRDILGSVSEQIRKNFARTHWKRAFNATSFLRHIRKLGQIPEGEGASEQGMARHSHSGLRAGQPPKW

| Compound | inhibition [1] | inhibition [2] | inhibition [3] | inhibition [4] | inhibition [5] | inhibition [6] | inhibition [7] | inhibition [8] | inhibition [9] | inhibition [10] | inhibition [11] | inhibition [12] | inhibition [13] | inhibition [14] | inhibition [15] | inhibition [16] | inhibition [17] |
| --- | --- | --- | --- | --- | --- | --- | --- | --- | --- | --- | --- | --- | --- | --- | --- | --- | --- |
| Oc1n[nH]c2nnc(-c3c(-c4ccccc4)nn4ccccc34)cc12 | -0.91% | -0.67% | 3.66% | -0.14% | 8.59% | 8.98% | 3.15% | 0.26% | 3.05% | 16.7% | 10.6% | 2.1% | -3.22% | -6.03% | -3.97% | 2.27% | -0.62% |
| Nc1n[nH]c2nnc(-c3c(-c4ccccc4)nn4ccccc34)cc12 | 0.39% | -2.11% | 24.1% | -2.71% | 20.1% | 17.3% | 4.72% | 0.77% | 42.5% | 1.96% | 10.5% | 2.52% | -4.59% | 1.7% | 6.33% | -1.27% | 12.8% |
